Test [1] has as its system hNET. The note with it: read-out: KM of transport by hNET; cited from earlier work.
Test [2] concerns the target T1, dDATfc (Drosophila melanogaster dopamine transporter functional construct) (Drosophila melanogaster, UniProt Q7K4Y6, DEL164-191/F471L/L415A/V74A).
T1 construct: expressed in transfected cells; host or cells: HEK293S GnTI- cells, transient transfection with pEG-BacMam plasmid
As to the kind of experiment: cell-based. The conditions noted are these: for inhibition at 10 µM: Log[compound] M = -5. As for the experimental part: (§1) Additional mutations in the subsite B or subsite C were incorporated into this gene used for carrying out the uptake assays.
(§2) Cells were transiently transfected with pEG-BacMam plasmid harboring the dDAT cGFP gene and incubated for 35–40 hrs at 37 °C with 5% CO2 and 80% humidity. […] The transport activity was arrested with 0.5 ml of pre-chilled assay buffer containing 100 μM desipramine (Sigma Aldrich) added to each reaction. The cells were then washed twice with the same buffer before solubilizing them in 0.1 ml of 20 mM DDM for one hour at room temperature. […] Following this, 0.1 ml of the supernatant was added to 0.5 ml of scintillation fluid (Ultima Gold, Perkin Elmer) and the radioactivity was estimated on MicroBeta scintillation counter (Perkin Elmer). […] The background-subtracted, dose–response plots were analyzed using GraphPad Prism v.5.0.1 and Ki values were determined from Cheng–Prusoff’s equation using the IC50 values obtained from the experiments.

In test [3] the test system is hDAT. The conditions noted are these: read-out: KM of transport by hDAT; cited from earlier work.
Test [4] deals with T2, dDATNET (Drosophila melanogaster, UniProt Q7K4Y6, D121G/DEL162-202/F471L/L415A/S426M/V74A).
T2 construct: GFP-8x-His (C); made in house; host or cells: HEK293S GnTI- cells, BacMam baculovirus transduction
The test is described as follows: biochemical. The class given is binding. As for the experimental part: (§3) Binding assays were performed with 20 nM of purified dDAT protein by scintillation proximity assay. For determining nisoxetine Kd, [^3H] Nisoxetine (Perkin Elmer) (in 1:5 molar ratio) was used in the range of 0.1 nM to 500 nM with 100 µM desipramine added to the control samples. Competition assays were done with 50 nM [^3H] […] The assays were done in 1 mM DDM, 0.2 mM CHS, 20 mM Tris-Cl (pH 8), 300 mM NaCl and 5% glycerol. The background values were subtracted to plot the final curves in GraphPad prism v5.0.1 and the Kd values were calculated. The IC50 values obtained from binding competition assays were used to deduce the Ki values by Cheng–Prusoff’s equation.

Test [5] addresses T3, dDATfc A117S/A428S (Drosophila melanogaster, UniProt Q7K4Y6, A117S/A428S/DEL164-191/F471L/L415A/V74A).
T3 construct: expressed in transfected cells; host or cells: HEK293S GnTI- cells, transient transfection with pEG-BacMam plasmid
The test is described as follows: cell-based. The class given is cell-based. As for the experimental part:
(§4) Earlier studies have posited that non-conserved residues in the primary binding site are responsible for selective inhibition of biogenic amine uptake[57],[58]. […] Effects of these mutations were analyzed through uptake inhibition using the three SNRIs employed in this study (Fig. 6a–c). […] Supplementary Table 2)[56],[59].
as §1, §2

Test [6] addresses T4, dDATfc A428S (Drosophila melanogaster, UniProt Q7K4Y6, A428S/DEL164-191/F471L/L415A/V74A).
T4 construct: expressed in transfected cells; host or cells: HEK293S GnTI- cells, transient transfection with pEG-BacMam plasmid
The test is described as follows: cell-based. The protocol: as §4, §1, §2

For test [7], the target named is T5, dDATfc A117S (Drosophila melanogaster, UniProt Q7K4Y6, A117S/DEL164-191/F471L/L415A/V74A).
T5 construct: expressed in transfected cells; host or cells: HEK293S GnTI- cells, transient transfection with pEG-BacMam plasmid
As to the kind of experiment: cell-based. As for the experimental part:
as §4, §1, §2

The target in test [8] is hDAT. Set-up: method as in earlier work. The note with it: vs. RTI-55; ref 4 (Supplementary: Vaishnavi et al., 2004); read-out: Binding Inhibition (Ki), hDAT; cited from earlier work.
Test [9] deals with T6, dDATmfc (Drosophila melanogaster, UniProt Q7K4Y6, DEL162-202/F471L/L415A/V74A).
T6 construct: GFP-8x-His (C); made in house; host or cells: HEK293S GnTI- cells, BacMam baculovirus transduction
As to the kind of experiment: biochemical. The note with it: read-out: Percent binding. The protocol: as §3

Test [10] deals with hDAT. The note with it: read-out: Uptake Inhibition Ki, hDAT; ref 3 (Supplementary: Bymaster et al., 2003); cited from earlier work.
Test [11] has as its system hNET. The conditions noted are these: cited from earlier work.
Setting [12] is: HEK293S, 0.5 h, read-out: Percent inhibition of DA uptake, dDATfc, single replicates.
Where [13] appears, read: 0.5 h, read-out: Percent inhibition of DA uptake.
[14] abbreviates: HEK293S, 0.5 h, read-out: Percent inhibition of DA uptake.

“And” between values parts separate entries of the source, which are not always exact repeats. Identical values can stand only once. Like-named read-outs stand apart in the source and are kept apart here.

The Km is the substrate concentration at which the rate is half of its maximum. Usually inhibition stands for the drop in the measured response relative to a control, in per cent. For orientation: Ki means a measure of affinity in units of concentration, obtained from inhibition or displacement. Broadly, the IC50 is the midpoint of a concentration-inhibition curve.

For the molecule `NCCc1ccc(O)c(O)c1` [DA, dopamine], the Km is 0.67 µM in test [1] and 2.54 µM in test [3]. The inhibition at 30 µM in test [2] (HEK293S, 0.5 h, read-out: Percent inhibition of DA uptake, dDATfc, Log[compound] M = -4.52288, single replicates) came to 8.62%. Also, the inhibition at 10 µM in test [2] (setting [12]) is 20%. Besides, the inhibition at 3 µM in [2] (HEK293S, 0.5 h, read-out: Percent inhibition of DA uptake, dDATfc, Log[compound] M = -5.52288, single replicates) amounted to 56.5%. Also, the inhibition at 0.1 µM in test [2] (HEK293S, 0.5 h, read-out: Percent inhibition of DA uptake, dDATfc, Log[compound] M = -7, single replicates) came to 91.1%. Moreover, in test [2] (HEK293S, 0.5 h, read-out: Percent inhibition of DA uptake, dDATfc, Log[compound] M = -7.52288, single replicates), the inhibition at 0.03 µM turned out to be 92.7%.
As to `CNCC[C@H](Oc1cccc2ccccc12)c1cccs1` [Dulox], in test [4] (read-out: Percent binding), the remaining activity at 0.03 µM was found to be 86.3%, the remaining activity at 0.1 µM came out at 57.8%, the remaining activity at 0.3 µM amounted to 34.1% and the remaining activity at 1 µM stood at 18.4%.
Regarding `NCC(O)c1ccc(O)c(O)c1` [NE, L-norepinephrine], the Km is 2.6 µM in [1] and 20 µM in test [3]. The inhibition at 3000 µM in [2] (HEK293S, 0.5 h, read-out: Percent inhibition of DA uptake, dDATfc, Log[compound] M = -2.52288, single replicates) worked out at 2.69%. The inhibition at 100 µM in [2] (HEK293S, 0.5 h, read-out: Percent inhibition of DA uptake, dDATfc, Log[compound] M = -4, single replicates) was determined as 29.3%. For the same molecule, in test [2] (setting [12]), the inhibition at 10 µM came out at 64.5%. Besides, the inhibition at 1 µM in test [2] (HEK293S, 0.5 h, read-out: Percent inhibition of DA uptake, dDATfc, Log[compound] M = -6, single replicates) was 92.2%. Also, the Ki in test [2] (Ki, inhibition of [3H] dopamine uptake) is 19.1 µM and 19 µM.
Regarding `CNCC[C@H](Oc1cccc2ccccc12)c1cccs1` [S-duloxetine], in test [5] (0.5 h, read-out: Percent inhibition of DA uptake, A117S_A428S, Log[compound] M = -6, single replicates), the inhibition at 1 µM worked out at 11.2%. Further, in test [5] (0.5 h, read-out: Percent inhibition of DA uptake, A117S_A428S, Log[compound] M = -6.52288, single replicates), the inhibition at 0.3 µM worked out at 44%. The inhibition at 0.1 µM in [5] (0.5 h, read-out: Percent inhibition of DA uptake, A117S_A428S, Log[compound] M = -7, single replicates) was 76.7%. In test [5] (0.5 h, read-out: Percent inhibition of DA uptake, A117S_A428S, Log[compound] M = -9, single replicates), the inhibition at 0.001 µM came out at 97.8%. Further, the “increase in IC50 values, combination of A428S and A117S” value in test [5] (double mutant vs dDATfc) is on record as ~ 3 fold. In addition, in test [6] (setting [13]), the inhibition at 0.03 µM worked out at 94.4%, the inhibition at 0.1 µM worked out at 80.2%, the inhibition at 0.3 µM is 45.5% and the inhibition at 1 µM turned out to be 9.62%. Further, the inhibition at 0.03 µM in test [7] (setting [13]) is 96.1%. The Ki in test [8] is 0.23 ± 0.017 µM. Moreover, in test [9], the remaining activity at 0.003 µM came to 86.1% and the remaining activity at 0.1 µM was 22.9%. Also, in [2] (setting [14]), the inhibition at 0.001 µM came to 96.4%, the inhibition at 0.003 µM amounted to 88.9%, the inhibition at 0.01 µM came out at 85.9% and the inhibition at 0.03 µM was found to be 77.7%. Besides, in [2] (setting [14]), the inhibition at 0.1 µM was determined as 45% and the inhibition at 0.3 µM came to 21.9%. In test [10], the Ki is 0.37 µM.
Regarding `COc1cccc(C2(O)CCCCC2CN(C)C)c1` (stereo not shown) [Tramadol, tramadol], in [11] (NET over DAT), the “greater affinity to NET over DAT” value is ~ 50 fold. Moreover, the IC50 in test [5] came to 130 ± 12.2 µM; in [6] it was 50.5 ± 5.4 µM; in test [7] it was 35.8 ± 2.2 µM; in test [2], 24.7 ± 2.8 µM. Further, the inhibition at 100 µM in [5] (0.5 h, read-out: Percent inhibition of DA uptake, A117S_A428S, Log[compound] M = -4, single replicates) came to 48.1%; in [6] (0.5 h, A428S, Log[compound] M = -4, single replicates, read-out: Percent inhibition of DA uptake), 32.2%; in [7] (0.5 h, A117S, Log[compound] M = -4, single replicates, read-out: Percent inhibition of DA uptake), 29.4%. Besides, the inhibition at 1 µM in test [6] (0.5 h, A428S, Log[compound] M = -6, single replicates, read-out: Percent inhibition of DA uptake) was found to be 92.4%; in [7] (0.5 h, A117S, Log[compound] M = -6, single replicates, read-out: Percent inhibition of DA uptake) it was 105%. In addition, the inhibition at 300 µM in test [6] (setting [13]) amounted to 11.6%; in test [7] (setting [13]) it was 13.1%. In [7] (setting [13]), the inhibition at 3 µM came out at 105%. Further, the results for the inhibition at 30 µM in [7] (setting [13]) and in [2] (setting [14]) were 61.3% and 38.5%, respectively. Besides, the inhibition at 3000 µM in test [7] (setting [13]) came out at 3.78%. Also, in [9] (DATmfc, Log Tramadol (M) -3, replicate values), the remaining activity at 1000 µM stood at 6.84%. The remaining activity at 100 µM in test [9] (DATmfc, Log Tramadol (M) -4, replicate values) turned out to be 23.9%; in test [4] (DAT NET, Log Tramadol (M) -4, replicate values, read-out: Percent binding), 43.3%. The remaining activity at 10 µM in test [9] (DATmfc, Log Tramadol (M) -5, replicate values) came out at 74.2%. For the same molecule, the remaining activity at 1 µM in [9] (DATmfc, Log Tramadol (M) -6, replicate values) is 91.4%. In addition, in test [9], the remaining activity at 3 µM amounted to 91%. Also, the values for the remaining activity at 30 µM in test [9] and in test [4] (read-out: Percent binding) were 44% and 60%, respectively. For the same molecule, the inhibition constant Ki in [2] is 15.9 ± 1.8 µM; in test [4] (Binding Ki with dDATNET (vs. Nisoxetine)), 5.31 µM and 5.3 µM. The remaining activity at 300 µM in test [4] (read-out: Percent binding) was found to be 17.9%. For the same molecule, in test [4] (read-out: Percent binding), the remaining activity at 3000 µM came to 4.79%.
As for `CN(C)C[C@H]1CCCC[C@]1(O)c1cccc(O)c1` [desmetramadol, O-desmethyl tramadol], the IC50 in test [11] (read-out: IC50, inhibition of hNET) was 6 µM.

The values are drawn from paper PMC8044178, “Structural basis of norepinephrine recognition and transport inhibition in neurotransmitter transporters” (Nature Communications, 2021).
